Data on six compounds can be found in US5530110A, “4-ethoxy-5-fluoro-2'-deoxyuridine” (City of Hope, priority 1994, dated 1996).

Molecules are shown by their SMILES. Read-outs that look alike come from different tables or passages of the source.

The subject of data set [1] is CCRF-CEM cells. The data set can be described thus: Cytostatic activity (growth inhibition) of CCRF-CEM cells in culture. Format: cell-based. Conditions: Homo sapiens, 96 h. As to the method: Cell culture and cytostatic activity (growth inhibition): The human T-cell line CCRF-CEM was obtained from J. S. Holcenberg, Childrens Hospital of Los Angeles. Maintenance of cultures in RPMI 1640 medium and growth inhibition assays were carried out as previously described^24 except that iron-supplemented bovine calf serum was used routinely in place of dialyzed fetal bovine serum and inhibition of cell growth was based on the culture densities after four days without dilution of the cultures. […] Culture densities were also determined after three days to check that the cell growth continued in cultures without cytotoxic agents.
CCRF- CEM cells were a gift from Dr. John Holcenberg and were grown in suspension as previously described.

The nature of data set [2]: Relative partition coefficients between 0.1M phosphate buffer, pH 7.0 and 1-octanol. Format: physicochemical. Conditions: for logD: phosphate buffer / 1-octanol.
The subject of data set [3] is plasma thymidine phosphorylase. Conditions: in words; cited from earlier work.
The nature of data set [4]: Hydrolysis of the alkoxy derivatives to FdU in aqueous solution. Format: physicochemical. Conditions: for conversion to FdU in aqueous solution / dependence of hydrolysis rate on hydroxide concentration: in words; for dependence of hydrolysis rate on hydroxide concentration: data not shown; for half-life at 150 µM: pH 11, 25°, 1.5×10^-4 M in unbuffered deionized water adjusted with NaOH or HCl, read-out: conversion half life (4→1) (converted). As to the method: In aqueous solution, the 4-alkoxy derivatives (4) are converted to FdU (1). […] The reaction is both acid and base catalyzed. At pH 11, the half lives for the conversion are 3.3 and 12.5 hours, respectively for the methoxy (4a) and ethoxy (4b) derivatives.
Hydrolysis of the alkoxy derivatives (4a and 4b) Solutions of 4-methoxy (4a) and 4-ethoxy,5-fluoro, 2'-deoxyuridine (4b) (1.5×10^-4 M) were prepared in unbuffered, deionized water. The pH of the solutions was adjusted with the addition of 1N NaOH or 1N HCl. […] The UV spectrum obtained upon completion of the hydrolysis in both with both compounds 4a and 4b are indistinguishable from FdU^9. […] (data not shown).

The test system of data set [5] is human erythrocytes and lymphocytes. Conditions: in words; cited from earlier work.
The conditions of data set [6]: AZT over dT; cited from earlier work.
Data set [7] deals with thymidylate synthase. Conditions: via kinase and deamination to FdUMP; in words; cited from earlier work.
Data set [8] has as its system DNA 5-methylcytosine. Conditions: in words; cited from earlier work.
Data set [9] relates to cellular DNA. Conditions: cited from earlier work.
Setting [10] is: CCRF-CEM growth inhibition, four days, triplicate wells, read-out: EC50.
Setting [11] is: 0.1M phosphate buffer, pH 7.0 / 1-octanol, read-out: relative partition coefficient (converted).

A word on the EC50: it is the midpoint of the concentration-response curve. For `O=c1[nH]c(=O)n([C@H]2C[C@H](O)[C@@H](CO)O2)cc1F` [FdU (1), reference compound], the 50% effective concentration (EC50) in data set [1] (setting [10]) turned out to be 8.9 nM. Moreover, the logD in data set [2] (pH 7) was -1.28. Also, the “catabolism via plasma thymidine phosphorylase” value in [3] was “cleavage via plasma thymidine phosphorylase”.

Usually half-life stands for the time in which the quantity being followed falls by half. With `CCOc1nc(=O)n([C@H]2C[C@H](O)[C@@H](CO)O2)cc1F` [4-ethoxyFdU (4b), 4-Ethoxy, 5-fluoro, 2'-deoxyuridine], in [1] (setting [10]), the EC50 is 1800 nM. Besides, the “lipophilicity relative to FdU” value in data set [2] (pH 7) is 14.7 fold. Further, in [2] (setting [11]), the logD was -0.108. In addition, in data set [4], the “conversion to FdU in aqueous solution” value is given as “converted quantitatively to FdU in aqueous solution”, the “dependence of hydrolysis rate on hydroxide concentration” value was “proportional to [^- OH]” and the half-life at 150 µM is 12.5 h. Moreover, in data set [4] (water, pH 11, aqueous solution, read-out: half life for the conversion to FdU (converted)), the half-life was 12.5 h.

Regarding `COc1nc(=O)n([C@H]2C[C@H](O)[C@@H](CO)O2)cc1F` [4-methoxyFdU (4a), 4-Methoxy, 5-fluoro, 2'-deoxyuridine], the EC50 in data set [1] (setting [10]) was determined as 1800 nM. Further, the “lipophilicity relative to FdU” value in data set [2] (pH 7) was 4.5 fold. Moreover, the logD in [2] (setting [11]) was -0.62. Further, in data set [4], the “conversion to FdU in aqueous solution” value is “converted quantitatively to FdU in aqueous solution”, the “dependence of hydrolysis rate on hydroxide concentration” value was “proportional to [^- OH]” and the half-life at 150 µM is 2.2 h. The “catabolism via plasma thymidine phosphorylase” value in data set [3] was “neither deoxycytidine derivatives^25 nor 4-methoxy-5-fluoro-2'deoxyuridine^26 are catabolized via this pathway”.

The compound `O=c1[nH]cc(F)c(=O)[nH]1` [fluorouracil, 5-fluorouracil, reference compound] registered an EC50 in [1] (CCRF-CEM) of 5000 nM.

On to `Cc1cn([C@H]2C[C@H](N=[N+]=[N-])[C@@H](CO)O2)c(=O)[nH]c1=O` [AZT], for which the cell entry entry in data set [5] was “can enter human erythrocytes and lymphocytes by nonfacilitated diffusion”. The “increased lipophilicity over dT” value in data set [6] is given as 20 fold.

On to `Nc1nc(=O)n([C@H]2C[C@H](O)[C@@H](CO)O2)cc1F` [FdC (5), 5-Fluoro, 2'-deoxycytidine], for which, in data set [1] (setting [10]), the EC50 came to 6.9 nM. Besides, the logD in data set [2] (setting [11]) is -1.55. Also, the “inhibition of thymidylate synthase” value in [7] is given as “inhibition of thymidylate synthase”. Further, the “decrease in DNA 5-methylcytosine levels” value in data set [8] is on record as “dramatic decreases in DNA 5-methylcytosinelevels”. Moreover, the “relation of DNA incorporation to cytotoxicity” value in data set [9] is reported as “level of FdC incorporation is proportional to cytotoxicity”.
